Assay results reported in patent US20200001302A1, “MICROFLUIDIC DEVICES, SYSTEMS, INFRASTRUCTURES, USES THEREOF AND METHODS FOR GENETIC ENGINEERING USING SAME” (VALORBEC, SOCIÉTÉ EN COMMANDITE, priority 2018, published 2020).
Structures can show the parent of a compound that is named as a salt. Where two headings read alike, the source gives them in different places.

Legend:
H1299 cells [1] = test: On-chip (ACE digital microfluidic) sorafenib dose-response, cell viability by Calcein-AM cell count; format: cell-based, Human; conditions: for IC50: Homo sapiens
Description: Similarly, in the microscale, the transfection protocol is followed for seeding cells and the 7-step protocol for transfection of the pCRISPR plasmid containing sgRNA targeting eGFP or Raf-1. The standard step 7 was replaced with step 7a and step 7b. In step 7a, sorafenib tosylate in complete media was actively dispensed into unit droplets and then diluted in liquid media to form six different concentrations (0 micromolar, 7.5 micromolar, 15 micromolar, 30 micromolar, 60 micromolar, 120 micromolar) of which one droplet (0.7 microliters) was used to passively dispense onto each hydrophilic spot and the other droplet was saved for future dilutions. After all cells were interrogated with the drugs, they were incubated for two days. In step 7b, six unit droplets of 5 micromolar Calcein-AM violet stain were passively dispensed to the cells and incubated for 30 min in which images were taken to count the cells using a single module imaging pipeline. Calcein-stained image was smoothed with a Gaussian filter (G, sigma=1) and used the Otsu Global thresholding method to detect objects with diameters of 20-100 pixel units (two classes, threshold correction factor=1.25). Neighboring pixels are grouped into objects and undesired clumped objects (e.g., two close overlapping objects) are declumped using intensity segregation. The counted cells were normalized to the control (e.g., cell interrogated with no drugs). All curves were fit with a sigmoid function and probed for statistical significance using an F-test in the linear region.
To verify the effects of targeting RAF1 by genome editing and enzymatic inhibition, H1299 cells were cultured, edited, assayed, and analyzed on the ACE platform following procedures for measuring transfection and knockout efficiencies. Images of the lung cancer cells that are transfected with and without pCRISPR targeting RAF1 and treated with the sorafenib inhibitor are analysed using the standardized imaging pipeline (FIG. 39B, FIG. 51). […] The effects of RAF protein kinase inhibitor sorafenib tosylate with and without CRISPR-mediated RAF1 targeting were examined.

H1299 cells [2] = test: Cell viability over 7 days after RAF1 gene editing and sorafenib tosylate (FIG. 50); format: cell-based, Human; conditions: cells with both pCRISPR targeting RAF1 and 15 micromolar sorafenib tosylate added on day 2; after day 4
Experimental: MAPK/ERK pathway experiments. The MAPK/ERK pathway experiments used two key components: CRISPR-Cas9 genomic disruption of Raf1 and drug inhibition using sorafenib tosylate. In the macroscale, 0.75×10^5 cells/mL of H1299 cells were seeded on day 0 in 24-well plates. 600 ng of the pCRISPR plasmid targeting eGFP (control) or RAF1 was applied to the wells containing the cells on day 1. On day 3, drug conditions were added at different concentrations: 0 micromolar, 7.5 micromolar, 15 micromolar, 30 micromolar, 60 micromolar, 120 micromolar which were diluted in complete media. On day 5, 5 micromolar Calcein-AM violet stain (λex, lambda(ex)=408 nm and λem, lambda(em)=450 nm) diluted in 250 microliters fresh serum-free media was added to the cells and incubated at 37° C. for 30 min. The viability of cells was assessed by performing a fluorescence well scan using the CLARIOStar well-plate reader. The measured fluorescence was normalized to the control to determine the percent viability.
To assess the coupled effects of genome editing and drug inhibition, the H1299 cells with a pCRISPR targeting RAF1 or a control sgRNA were transfected and 15 micromolar sorafenib tosylate was added on day 2. […]
Four conditions were tested by acquiring fluorescent measurements over 7 days to assess proliferation. […] All readings were taken in triplicate and error bars represent +/−1 s.d.

[3] = system: RFP gene downstream of a T7 promoter in E. coli; test: IPTG inducer concentration optimization, RFP expression dose-response (AIMS and macro-scale); format: cell-based; conditions: after four hours
Experimental: For inducer concentration optimization carried out in the macroscale, starter cultures with a RFP plasmid were prepared at OD 0.1 from overnight inoculations. The cultures were grown at 37° C. with shaking and were induced upon reaching OD 0.4. 45 mL of the culture was induced at 200 micromolar and diluted with fresh media to generate the following IPTG concentrations: 200, 133.3, 88.9, 59.3, 40, 26.7, 17.8, and 11.9 micromolar. These sub-cultures were prepared in triplicates along with a non-induced control and were induced at 37° C. and shaken for 4 hours. After induction, 200 microliters of each culture were loaded onto a 96-well plate and fluorescence at 612 nm was measured with 582 nm excitation on a TECAN Infinite M200 plate reader (Mannedorf, Switzerland) with the settings: gain of 75, 25 flashes and 20 microseconds integration time. The fluorescence intensity with increasing IPTG concentration was plotted on a logarithmic scale to generate a dose-response curve.
In the inducer concentration optimization program, three unit droplets of 1.42 microliters containing transformed RFP-cells were dispensed from the culture region and mixed with 0.3 microliters of 3.24 mM IPTG. This droplet was actuated to an empty reservoir and one daughter droplet was split from this reservoir and actuated to the incubation region. […]

[4] = BGL off-chip assay in well plate, absorbance at 405 nm; format: biochemical, Thermobaculum terrenum; conditions: well-plate reader
Experimental: Referring to FIG. 16, there is shown off-chip enzymatic assay with an absorbance readout as a function of time were collected every 30 min. Nine reactions containing equal volume of lysate with enzyme and substrate were mixed in a well of a 96 well plate. At 30 min intervals, the reaction was arrested by glycine-NaOH solution and an absorbance measurement was acquired from the product formation of pNP which gave a yellow color. Each experiment was repeated three times, and error bars are +/−1 SD.
Protein expression. The plasmid containing the cloned BGL1 gene was first transformed into E. coli BL21(DE3) for recombinant expression. The transformed cells were inoculated overnight in a 5 mL pre-culture. The following day, the culture was diluted to OD 0.05 in a 100 mL starter culture and grown at 37° C. with 200 rpm shaking. Upon reaching OD 0.4, expression of the BGL1 gene was induced by addition of 1 mM IPTG and induction was carried out under the same growth conditions for 8 hours. […]
BGL off-chip assay. […] Absorbance at 405 nm was immediately acquired after stopping each reaction on a TECAN infinite M200 plate reader with the following settings: 9 nm bandwidth, single reads per well, 25 flashes per reading, and 0 ms of settle time. Reactions with absorbance units >4 were diluted and the final absorbance was calculated from the diluted sample. […]

[5] = On-chip beta-glucosidase colorimetric assay, blue channel pixel intensity (image-based feedback system); format: biochemical, Thermobaculum terrenum
Experimental: The assay on-chip included three different solutions loaded onto the DMF device reservoirs. First, a unit droplet of cell lysate was dispensed and actuated to each of the four assay mixing areas (see FIG. 5 for DMF design) using a starting voltage of 230 VRMS at 15 kHz. The lysate was prepared from a colony of BL21(DE3) transformed with a plasmid containing beta-glucosidase (BGL) gene (see FIG. 6 and FIG. 7 for plasmid map and sequence (SEQ ID NO: 1) respectively) that was grown at 37° C. and induced at 0.4 O.D (˜1.75 h starting at 0.1 O.D). The assay started by the addition of a droplet containing substrate to a droplet of cell lysate. The substrate solution contained 50 mM sodium citrate at pH 7.0 and 4 mM 4-nitrophenyl beta-D-glucopyranoside (MUG). The reactions were incubated at different times (0, 40, 80, and 120 min) and arrested by the addition of a unit droplet of 0.3 M Glycine-NaOH on the assay areas on the device. Solutions contained 0.05% final concentration of F-68 Pluronics. […]
The typical model for analyzing kinetics of a beta-glucosidase enzyme is to use a chromogenic model substrate para-nitrophenyl-beta-glucoside (pNPG) that will produce glucose and para-nitrophenol upon hydrolysis (FIG. 14). The liberation of para-nitrophenol (pNP) gives a yellow color product which can be monitored by an image-based feedback system. […]

## CNC(=O)c1cc(Oc2ccc(NC(=O)Nc3ccc(Cl)c(C(F)(F)F)c3)cc2)ccn1 [sorafenib, sorafenib tosylate]
H1299 cells [1]; NCI-H1299, read-out: inhibitory sorafenib concentration achieving half-maximal viability level (IC50), on-chip, cells transfected with pCRISPR targeting RAF1, fitted sigmoid curve
  IC50: 13.2 µM
H1299 cells [1]; NCI-H1299, read-out: inhibitory sorafenib concentration achieving half-maximal viability level (IC50), on-chip, control (guide targeting eGFP), fitted sigmoid curve
  IC50: 7.54 µM
H1299 cells [1]; edited H1299 cells with CRISPR-mediated RAF1 targeting
  sensitivity in the linear micromolar range: 7 to 35 µM
H1299 cells [1]; on-chip
  fold reduction of IC50 with pCRISPR targeting RAF1 versus control: ~1.8 fold
H1299 cells [2]
  basal viability level: ~25%

## CC(C)S[C@@H]1O[C@H](CO)[C@H](O)[C@H](O)[C@H]1O [IPTG, isopropyl beta-D-1-thiogalactopyranoside]
[3]
  IPTG concentration at which protein production was constant (comparable to basal levels): < 30 µM
[3]; induced at OD 0.4
  IPTG concentration giving highest protein production: above 200 micromolar

B1: beta-glucosidase: β-glucosidase (BGL) from Thermobaculum terrenum in BL21(DE3) cell lysate, plasmid pET_BGL1 of Example 1 (protein, listed as Thermobaculum terrenum)
chain: MKHLVTTLLFGLVFAAAVRAQSSRVDSLLAAMTLAEKISLLHGAIDPTGEAGAGYVPGVPRLGIPAMRLTDGPAGIRTRHPATALPAPVALAASFDPELAYRYGHVMGIEGRARRHEVLLSPMVNIVRVPEAGRNFETFSEDPLLSAEMVAAEVRGIQDAGMMATVKHYVANNFENDRMRVNVVVDERTLREIYLPGFEAAIKAGAAAVMCAYNRVNGPYACDNEMLLTDILRDEWGFEGWVMTDWFAGHSLESLVRGLDQEMPGYTIPFSSPDMPLAPAVFADSLLAAVESGRIDEAYVDRAVRRILVQMEQFGLLDGESTPPEINIEAHAAVAREVAEAGAVLLRNENQTLPLSERDLQHLVVIGPTATRPLIGGGGSSRVQPFRTTSTLAALQELAGPQAQIRYVPGIDLDGMPVPSSALRTPDGQPGLLRQGADGTTQVDAQLDFTGERALPPGSQWTWTGTLTAPTAGVYELKLQTAGGVGTLSIDGQPVLRTGMFFSDASLIPTADSLENATYRIELQAGQQLSLTVQISGQVPSLPFLPAGQNPVQVRLAWVTPERRAAFLEEAAEAARAAHAAIVFVYEEGTEGRDRETLALRPDQDALVEAVAAANPRTTVVMNVGAPTLMPWAERVGAILLMWYPGQEGGWATADVLLGRANPAGRLPVTFPRRAEDAPTASPERYPGVDLTARYDEGIFVGYRWYDAQQIEPLFPFGHGLSYTTFAYENLRVEPDGDGFVVRFVVRNTGDRAGSDVPQVYLGPPENPPVPMAVRQLVGFRRVTLAPGEAQEVTVRIDGRALSYWSVEDHAWVKATGRRTLYVGASARDLRLQTEIDVQ
[4]
  first order rate constant kPLATE: 0.504 h⁻¹
[5]
  first order rate constant kDMF: 0.167 h⁻¹
